In publication PMC4039107, “Spores of Clostridium engineered for clinical efficacy and safety cause regression and cure of tumors in vivo” (Oncotarget, 2014):
Read-outs that look alike come from different tables or passages of the source.

Key:
Assay type in all cases: biochemical
NfnB = target: T1, NfnB (Escherichia coli, UniProt P38489); assay: menadione reductase activity of C. sporogenes E1 lysate; details: background of endogenous quinone reductases in wild type and pyrE mutant controls
T1 construct: gene nfsB; untagged as far as told; expressed from fdx promoter at pyrE locus of C. sporogenes strain E1; cell lysate
T1 sequence (P38489 1-217): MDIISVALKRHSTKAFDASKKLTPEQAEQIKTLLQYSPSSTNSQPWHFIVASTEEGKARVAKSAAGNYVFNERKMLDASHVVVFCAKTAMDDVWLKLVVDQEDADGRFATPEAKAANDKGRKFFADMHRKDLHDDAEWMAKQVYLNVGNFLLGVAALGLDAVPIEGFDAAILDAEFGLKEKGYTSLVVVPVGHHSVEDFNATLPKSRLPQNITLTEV

NmeNTR = target: T2, NmeNTR (Neisseria meningitidis, UniProt Q9K022); assay: HPLC CB1954 nitroreductase assay
T2 construct: gene NMB0804
Text: HPLC CB1954 nitroreductase assay on NmeNTR

HsoNTR = target: T3, HsoNTR (Histophilus somni, UniProt A0A9Q6YZG6); assay: HPLC CB1954 nitroreductase assay
T3 construct: gene JFL49_05940
Text: HPLC CB1954 nitroreductase assay on HsoNTR

[1] = kcat is with NADH as co-substrate, read-out: Km ^CB1954
[2] = co-substrate CB1954, read-out: Km ^NADH

T2 sequence (Q9K022 entry or part of it): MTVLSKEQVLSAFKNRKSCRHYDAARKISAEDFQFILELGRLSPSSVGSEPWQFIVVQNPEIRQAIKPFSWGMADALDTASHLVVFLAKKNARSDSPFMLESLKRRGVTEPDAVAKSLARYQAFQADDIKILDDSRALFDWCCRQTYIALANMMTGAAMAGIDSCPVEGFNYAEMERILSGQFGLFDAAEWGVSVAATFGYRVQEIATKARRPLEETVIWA
T3 sequence (A0A9Q6YZG6 entry or part of it): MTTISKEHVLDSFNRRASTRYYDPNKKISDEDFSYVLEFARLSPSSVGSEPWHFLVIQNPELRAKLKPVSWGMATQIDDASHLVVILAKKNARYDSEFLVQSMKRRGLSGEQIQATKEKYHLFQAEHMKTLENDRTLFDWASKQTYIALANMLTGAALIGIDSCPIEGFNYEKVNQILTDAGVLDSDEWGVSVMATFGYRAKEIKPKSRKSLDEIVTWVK

Compound: CC1=CC(=O)c2ccccc2C1=O [menadione]
- specific menadione reductase activity (NfnB): both E1 and N1 contained menadione reductase activity elevated significantly above the endogenous levels

Compound: NC(=O)c1cc(N2CC2)c([N+](=O)[O-])cc1[N+](=O)[O-] [CB1954, 5-(aziridin-1-yl)-2,4-dinitrobenzamide]
- Km (NmeNTR; [1]): 2.47 µM
- Km (HsoNTR; [1]): 22 µM

Compound: NC(=O)C1=CN([C@@H]2O[C@H](COP(=O)(O)OP(=O)(O)OC[C@H]3O[C@@H](n4cnc5c(N)ncnc54)[C@H](O)[C@@H]3O)[C@@H](O)[C@H]2O)C=CC1 [NADH]
- Km (NmeNTR; [2]): 188 µM
- Km (HsoNTR; [2]): 644 µM
